# Laboratory results as given in publication PMC9508196 (Scientific Reports, 2022).
# Non-standard residues stand in square brackets, D forms with d. Residues, ends and D or L forms follow the SMILES beside them. No end group written: not given here.
# What was measured:
# [1] = tested on: human red blood cells (hRBCs); experiment: Hemolysis assay; type: cell-based; conditions: hRBCs, peptide 250 µg/mL, 1 h, 37 °C
# Method: The hemolytic activity of peptides was determined as the amount of hemoglobin released from lysed human red blood cells (hRBCs) after treatment with peptide. Fresh hRBCs were collected from a healthy volunteer in polycarbonate tubes containing heparin. Then, the collected packed RBCs were washed at least three times (or until the supernatant was clear) with sterile phosphate-buffered saline pH 7.4 (PBS) and centrifuged at 2,000 × g for 5 min. The 2% (v/v) of washed hRBCs in PBS were incubated with serially diluted peptides (0.98 to 250 μg/ml) for 1 h at 37 °C. After centrifugation, the supernatants were monitored for optical density (OD) at 405 nm using a Multiskan FC Microplate Reader[21]. Values for 0% (negative control) and 100% (positive control) lysis were determined by incubating the hRBCs with PBS only (ODBlank) and 0.1% (v/v) Triton X-100 (ODTriton X-100), respectively. The experiments were performed in triplicate. The percent hemolysis was calculated according to the following equation: %Hemolysis=ODSample-ODBlank/ODTriton X-100-ODBlank×100
# [2] = tested on: A. baumannii ATCC 19,606; experiment: Peptide sensitivity to physiological salts (MIC/MBC); type: cell-based, Acinetobacter baumannii; conditions: for MBC in the presence of FeCl3 / MIC in the presence of FeCl3: MHB with 4 µM FeCl3; for MBC in the presence of NH4Cl / MIC in the presence of NH4Cl: MHB with 6 µM NH4Cl; for MBC in the presence of ZnCl2 / MIC in the presence of ZnCl2: MHB with 8 µM ZnCl2; for MBC in the presence of MgCl2 / MIC in the presence of MgCl2: MHB with 1 mM MgCl2; for MBC in the presence of KCl / MIC in the presence of KCl: MHB with 4.5 mM KCl; for MBC in the presence of NaCl / MIC in the presence of NaCl: MHB with 150 mM NaCl; for MBC in the presence of CaCl2 / MIC in the presence of CaCl2: MHB with […] CaCl2; for MBC, control / MIC, control: control: absence of serum salts, MHB
# Method: (§1) Minimum inhibitory concentration (MIC) of peptides and antibiotics was assessed by a modified version of the broth microdilution method from the Clinical and Laboratory Standards Institute (CLSI) as previously described. In brief, mid-log phase growths of microbial strains were cultured in Müeller-Hinton broth (MHB) with an initial inoculum of 2–8 × 10^5 CFU/mL. Bacteria suspensions were incubated in sterile 96-well plates with test agents at desired concentrations. […] Minimum bactericidal concentration (MBC) determination was performed using a modified version of the colony count assay. In brief, fifty µl of all non-turbid wells from MIC experiments were spread on agar plates. The MBC value was defined as the lowest concentration of peptides with no colony growth on the plate. All assays were performed in triplicate.
# The MIC and MBC assays were performed after peptide was exposed to various conditions, including proteolytic enzymes, serum salts and human plasma. […] To determine peptide sensitivity to physiological salts, approximately 5 × 10^5 CFU/ml of A. baumannii ATCC 19,606 was mixed with the MHB containing different physiological salts at final concentration as follows: 150 mM NaCl, 4.5 mM KCl, 1 mM MgCl2, 6 µM NH4Cl, 8 µM ZnCl2, 4 µM FeCl3 and […]. After treatment, the MIC was evaluated as described in 2.4. To test the stability of peptides in human plasma, peptide was mixed with pure human plasma, and the mixture was incubated for 1 h at 37 °C. Then, the mixture was two-fold serially diluted with sterile MHB. The peptides at final concentrations of 0.98 to 250 µg/ml were incubated with an equal volume of bacterial suspension at 37 °C for 24 h. MIC values were determined as described in 2.4.
# [3] = tested on: A. baumannii B-8.1–2 (MDR); experiment: microbe, parasite or virus in culture; type: cell-based, Acinetobacter baumannii; conditions: clinical isolate B-8.1–2 (MDR), respiratory tract
# Excerpt: (§2) Ten strains of both Gram-positive and -negative bacteria, including Staphylococcus aureus ATCC 25,923, S. epidermidis ATCC 12,228, Bacillus cereus ATCC 11,778, Listeria monocytogenes 10403S, Salmonella typhimurium ATCC 13,311, Pseudomonas aeruginosa ATCC 27,853, Shigella sonnei ATCC 11,060, A. baumannii ATCC 19,606, Escherichia coli ATCC 25,922 and E. coli O157:H7, were used in this study. Eight clinical isolates of multidrug-resistant (MDR) and extensively drug-resistant (XDR) A. baumannii, isolated from human (blood, sputum, respiratory sample, sterile site sample and urine), were kindly provided by Asst. Prof. Dr. Sakawrat Kanthawong (Faculty of Medicine, Khon Kaen University, Thailand) (Table S1). All bacterial strains, excluding L. monocytogenes 10403S and E. coli, were cultured in tryptic soy broth (TSB). L. monocytogenes was grown in TSB supplemented with 0.6% yeast extract (TSB-YE), and E. coli was cultured in Luria broth (LB). All of bacteria were cultured at 37 °C with continuous shaking at 220 rpm.
# as §1
# [4] = tested on: A. baumannii B-8.2–2 (XDR); experiment: microbe, parasite or virus in culture; type: cell-based, Acinetobacter baumannii; conditions: clinical isolate B-8.2–2 (XDR), respiratory tract
# Excerpt: as §2, §1
# [5] = tested on: A. baumannii A-8.2–1 (XDR); experiment: microbe, parasite or virus in culture; type: cell-based, Acinetobacter baumannii; conditions: clinical isolate A-8.2–1 (XDR), blood
# Excerpt: as §2, §1
# [6] = tested on: A. baumannii C-8.1–2 (MDR); experiment: microbe, parasite or virus in culture; type: cell-based, Acinetobacter baumannii; conditions: clinical isolate C-8.1–2 (MDR), sterile site
# Excerpt: as §2, §1
# [7] = tested on: A. baumannii ATCC 19,606; experiment: microbe, parasite or virus in culture; type: cell-based, Acinetobacter baumannii; conditions: A. baumannii ATCC 19,606, triplicate; for MIC: broth microdilution (modified CLSI), MHB, 2–8 × 10^5 CFU/mL, 24 h, 37 °C; for MBC: colony count from non-turbid MIC wells
# Excerpt: as §2, §1
# [8] = tested on: A. baumannii C-8.2–1 (XDR); experiment: microbe, parasite or virus in culture; type: cell-based, Acinetobacter baumannii; conditions: clinical isolate C-8.2–1 (XDR), sterile site
# Excerpt: as §2, §1
# [9] = tested on: A. baumannii B-8.1–1 (MDR); experiment: microbe, parasite or virus in culture; type: cell-based, Acinetobacter baumannii; conditions: clinical isolate B-8.1–1 (MDR), respiratory tract
# Excerpt: as §2, §1
# [10] = tested on: A. baumannii D-10.1–2 (MDR); type: cell-based, Acinetobacter baumannii; conditions: clinical isolate D-10.1–2 (MDR), urine
# Excerpt: as §2, §1
# [11] = tested on: A. baumannii D-10.1–1 (MDR); type: cell-based, Acinetobacter baumannii; conditions: clinical isolate D-10.1–1 (MDR), urine
# Excerpt: as §2, §1
molecule,measurement,setting,value
CC[C@@H](C)[C@@H](NC(=O)[C@@H](CCCCN)NC(=O)CNC(=O)[C@@H](C)NC(=O)[C@H](NC(=O)[C@@H](CCCCN)NC(=O)[C@@H](CCCCN)NC(=O)[C@H](NC(=O)[C@@H](CCCNC(=N)N)NC(=O)[C@@H](CCCNC(=N)N)NC(=O)[C@@H](Cc1ccccc1)NC(=O)[C@@H](CC(C)C)NC(=O)[C@H](N)CCCNC(=N)N)C(C)C)C(C)C)C(=O)N[C@H](C)C(=O)N[C@H](CCCCN)C(=O)N[C@H](CCCNC(=N)N)C(=O)N[C@@H](C(=O)N[C@H](Cc1c[nH]c2ccccc12)C(=O)N[C@H](CCCCN)C(N)=O)[C@H](C)CC [D-AP19] (H-[dR][dL][dF][dR][dR][dV][dK][dK][dV][dA]G[dK][dI][dA][dK][dR][dI][dW][dK]-NH2),Hemolysis,[1],3.28%
same,MBC in the presence of FeCl3,[2],15.63(15.63) µg/ml
same,MIC in the presence of FeCl3,[2],15.63(15.63) µg/ml
same,MBC in the presence of NH4Cl,[2],7.81(7.81) µg/ml
same,MIC in the presence of NH4Cl,[2],7.81(7.81) µg/ml
same,MBC in the presence of ZnCl2,[2],15.63(15.63) µg/ml
same,MIC in the presence of ZnCl2,[2],15.63(15.63) µg/ml
same,MBC in the presence of MgCl2,[2],7.81(7.81) µg/ml
same,MIC in the presence of MgCl2,[2],7.81(7.81) µg/ml
same,MBC in the presence of KCl,[2],15.63(15.63) µg/ml
same,MIC in the presence of KCl,[2],15.63(15.63) µg/ml
same,MBC in the presence of NaCl,[2],62.5(62.5) µg/ml
same,MIC in the presence of NaCl,[2],62.5(62.5) µg/ml
same,MBC in the presence of CaCl2,[2],15.63(15.63) µg/ml
same,MIC in the presence of CaCl2,[2],15.63(15.63) µg/ml
same,"MBC, control",[2],7.81(7.81) µg/ml
same,"MIC, control",[2],7.81(7.81) µg/ml
same,MBC,[3],15.63(15.63) µg/ml
same,MIC,[3],15.63(15.63) µg/ml
same,MBC,[4],7.81(7.81) µg/ml
same,MIC,[4],7.81(7.81) µg/ml
same,MBC,[5],7.81(7.81) µg/ml
same,MIC,[5],7.81(7.81) µg/ml
same,MBC,[6],3.91(3.91) µg/ml
same,MIC,[6],3.91(3.91) µg/ml
same,MIC,[7],7.81 (7.81) µg/ml
same,MBC,[7],7.81 (7.81) µg/ml
same,MBC,[8],7.81(7.81) µg/ml
same,MIC,[8],7.81(7.81) µg/ml
same,MBC,[9],7.81(7.81) µg/ml
same,MIC,[9],7.81(7.81) µg/ml
same,MBC,[10],7.81(7.81) µg/ml
same,MIC,[10],7.81(7.81) µg/ml
same,MBC,[11],7.81(7.81) µg/ml
same,MIC,[11],7.81(7.81) µg/ml
RLFRRVKKVAGKIAKRIWK-NH2 [AP19],Hemolysis,[1],7.25%
same,MBC in the presence of FeCl3,[2],7.81(7.81) µg/ml
same,MIC in the presence of FeCl3,[2],7.81(7.81) µg/ml
same,MBC in the presence of NH4Cl,[2],7.81(7.81) µg/ml
same,MIC in the presence of NH4Cl,[2],7.81(7.81) µg/ml
same,MBC in the presence of ZnCl2,[2],7.81(7.81) µg/ml
same,MIC in the presence of ZnCl2,[2],7.81(7.81) µg/ml
same,MBC in the presence of MgCl2,[2],7.81(7.81) µg/ml
same,MIC in the presence of MgCl2,[2],7.81(7.81) µg/ml
same,MBC in the presence of KCl,[2],7.81(7.81) µg/ml
same,MIC in the presence of KCl,[2],7.81(7.81) µg/ml
same,MBC in the presence of NaCl,[2],31.25(31.25) µg/ml
same,MIC in the presence of NaCl,[2],31.25(31.25) µg/ml
same,MBC in the presence of CaCl2,[2],7.81(7.81) µg/ml
same,MIC in the presence of CaCl2,[2],7.81(7.81) µg/ml
same,"MBC, control",[2],7.81(7.81) µg/ml
same,"MIC, control",[2],7.81(7.81) µg/ml
same,MBC,[3],7.81(7.81) µg/ml
same,MIC,[3],7.81(7.81) µg/ml
same,MBC,[4],7.81(7.81) µg/ml
same,MIC,[4],7.81(7.81) µg/ml
same,MBC,[5],3.91(3.91) µg/ml
same,MIC,[5],3.91(3.91) µg/ml
same,MBC,[6],3.91(3.91) µg/ml
same,MIC,[6],3.91(3.91) µg/ml
same,MIC,[7],7.81 µg/mL
same,MBC,[7],7.81 (7.81) µg/ml
same,MBC,[8],7.81(7.81) µg/ml
same,MIC,[8],7.81(7.81) µg/ml
same,MBC,[9],7.81(7.81) µg/ml
same,MIC,[9],7.81(7.81) µg/ml
same,MBC,[10],3.91(3.91) µg/ml
same,MIC,[10],3.91(3.91) µg/ml
same,MBC,[11],7.81(7.81) µg/ml
same,MIC,[11],7.81(7.81) µg/ml
